Source: patent US20110230450A1, “PLATELET-ACTIVATING FACTOR (PAF) ANALOGS AND USES THEREOF” (Vascular Biogenics Lts, priority 2007, published 2011)

What was measured:
IL-12/23 p40 [1] = experiment: q-PCR for p40 mRNA in peptidoglycan-activated CD11c+ BMDCs; format: cell-based, mouse; details: 20 μg/ml for 1 hour, then 10 μg/ml peptidoglycan for 2, 3 and 4 hours, normalized to GAPDH (FIG. 6)
Protocol: Generation of bone-marrow derived dendritic cells (BMDC's): Bone-marrow was flushed out with cold RPMI-1640 medium from mice femur and tibia. A cell suspension was prepared and erythrocytes were removed using red blood cell (RBC) lysis buffer (Beit Haemek, Israel). Cells were washed in phosphate buffer saline (PBS) (Beit Haemek, Israel), and incubated at 4° C. for 15 minutes in buffer containing PBS and 0.5% bovine serum albumin (BSA) with mouse B220 and CD90 microbeads (Miltenyi biotech, Bergisch Gladbach, Germany). Cells were then washed, resuspended in the same buffer, and depleted from B and T cells on a Midi-Macs separation unit through a LD or LS column (Miltenyi Biotech). The depleted cells were then counted, washed and seeded (10^6/ml) in medium containing RPMI-1640 medium, L-glutamine, β-mercaptoethanol, 10% fetal calf serum (FCS), antibiotics (penicillin, streptomycin) and 20 ng/ml of mouse granulocyte-macrophage colony-stimulating factor (GM-CSF) (Peprotech, Rehovot, Israel). […]
Preparation of RNA, cDNA and Quantitative Real Time PCR (Q-PCR): RNA was prepared from cells using an RNeasy mini kit (Qiagen, Valencia, Calif.). […] All real time quantitative PCR (q-PCR) reactions were performed using LightCycler Taqman master (Roche Diagnostics, Mannheim, Germany) and the LightCycler (Roche). […]

MOG induced EAE = experiment: MOG peptide-induced experimental autoimmune encephalomyelitis (EAE), clinical score; format: in vivo, mice; details: from 5 days before to 5 days after MOG 35-55 immunization (FIG. 7)
Protocol: Mice: Female 8-10 week old […] mice were purchased from Harlan Laboratories (Israel). EAE (experimental autoimmune encephalomyelitis) induction: Mice were immunized subcutaneously with an emulsion containing 1.5 mg/ml MOG peptide 35-55 ([…]) (Sigma-Aldrich, Rehovot, Israel) and 2.5 mg/ml complete Freund's adjuvant (CFA), 100 μl in each flank. Pertussis toxin (500 ng in 500 μl PBS) was administered intra-peritoneally immediately and 48 hours after immunization. For prevention of EAE, CI-302 or PBS was given orally once a day for 10 consecutive days beginning 5 days before immunization. The severity of EAE was assessed utilizing clinical scores determined as follows: 0=normal, 1=limp tail, 2=weakness of hind limbs, 3=hind leg paralysis, 4=hind and fore leg paralysis, 5=moribund or death

IL-12/23 p40 [2] = experiment: IL-12/23 p40 production by peptidoglycan-activated BMDCs (ELISA); format: cell-based, mouse; details: BMDCs activated with 10 μg/ml peptidoglycan
Protocol: Generation of bone-marrow derived dendritic cells (BMDC's): Bone-marrow was flushed out with cold RPMI-1640 medium from mice femur and tibia. A cell suspension was prepared and erythrocytes were removed using red blood cell (RBC) lysis buffer (Beit Haemek, Israel). Cells were washed in phosphate buffer saline (PBS) (Beit Haemek, Israel), and incubated at 4° C. for 15 minutes in buffer containing PBS and 0.5% bovine serum albumin (BSA) with mouse B220 and CD90 microbeads (Miltenyi biotech, Bergisch Gladbach, Germany). Cells were then washed, resuspended in the same buffer, and depleted from B and T cells on a Midi-Macs separation unit through a LD or LS column (Miltenyi Biotech). The depleted cells were then counted, washed and seeded (10^6/ml) in medium containing RPMI-1640 medium, L-glutamine, β-mercaptoethanol, 10% fetal calf serum (FCS), antibiotics (penicillin, streptomycin) and 20 ng/ml of mouse granulocyte-macrophage colony-stimulating factor (GM-CSF) (Peprotech, Rehovot, Israel). Medium was replaced every other day and cells were used for subsequent experiments on days 5-6 post culturing.
Cytokine analysis: For the detection of cytokine production, supernatants from 24-hour post-treatment BMDCs were tested with Duoset ELISA kits for mouse IL12/23 p40 (R&D systems, Minneapolis, Minn.). […]

[3] = tested on: tyrosine phosphorylation in peritoneal macrophages; experiment: Western blot of phosphotyrosine in peritoneal macrophages; format: cell-based; details: thioglycolate-stimulated peritoneal macrophages, 20 μg/ml, 10 minutes (FIG. 10)
Protocol: Western blot: Thioglycolate-stimulated peritoneal macrophages were treated for 10 minutes with 20 μg/ml of CI-302. 20 μg/ml of phosphatidylcholine or solvent served as negative controls, whereas CI-201 served as a positive control. Whole cell lysates were resolved by SDS-PAGE on 10% Tris/HCl denaturing gel, transferred to nitrocellulose membranes and blotted with anti-phosphotyrosine antibody. Blotting with anti-ERK1/2 antibody served as a loading control.

human platelets = experiment: Platelet aggregation assay; format: cell-based; details: human platelet-rich plasma, 5 minutes; CI-302 in escalating concentrations of up to 1 mM; PAF 0.125-0.25 μM (FIGS. 2-4)
Protocol: Platelet aggregation assay: Platelet-rich plasma was prepared from citrated whole human blood by centrifugation (200 g for 20 minutes). The final platelet concentration was adjusted to 2×10^8 platelets/ml with autologous plasma. CI-302 and PAF dissolved in PBS were added to induce platelet activation while the platelet sample was stirred at 1,000 rpm at 37° C. Aggregation was recorded for 5 minutes using an AggRAM 4-channel aggregometer (AggRAM aggregation Remote Analyzer Module; Helena Laboratories).

[4] = tested on: collagen-induced arthritis; experiment: Collagen-induced arthritis (CIA), arthritis score; format: in vivo, DBA/1 male mice; details: 0.4 mg/kg by gavage daily from day 22 to day 39, CIA mouse model (FIG. 9)
Protocol: Collagen-induced arthritis (CIA) induction: DBA/1 male mice were immunized to induce arthritis by a collagen injection containing complete Freund's adjuvant (CFA) in the base of the tail (day 0) and a booster shot in the flank (day 21). Mice were followed for arthritis development until day 39. Administration by gavage of the tested compounds and control substances began on day 22 and was carried out on a daily basis (6 times per week).
The severity of arthritis was assessed as follows:
Each paw is scored on a scale of 0-4 for the degree of swelling, erythema, and deformity of the joints (maximum score 16 per animal) as follows [Brackertz et al., 1977]:
0=normal 1=slight erythema and/or swelling of the ankle or wrist or toes 2=moderate erythema and/or swelling of the ankle or wrist 3=severe erythema and/or swelling of the ankle or wrist (or moderate in combination of all toes) 4=complete erythema and swelling of toes or fingers and ankle or wrist, and inability to bend the ankle or wrist

[5] = tested on: pro-inflammatory chemokines and cytokines in spinal cords; experiment: q-PCR for pro-inflammatory chemokines and cytokines in spinal cords of EAE mice; format: in vivo; details: 0.4 mg/kg oral, 28 days after immunization
Protocol: Preparation of RNA, cDNA and Quantitative Real Time PCR (Q-PCR): RNA was prepared from cells using an RNeasy mini kit (Qiagen, Valencia, Calif.). For cDNA preparation, 1 μg of RNA was combined with oligo-dT for 10 minutes at 70° C., and 1^St strand buffer, dithiothreitol (DTT), deoxynucleotides (dNTP) and super-script reverse transcriptase (SS-II) (Invitrogen, Carlsbad, Calif.) were then added for 50 minutes at 42° C. The reaction was ended by incubation for an additional 15 minutes at 70° C. All real time quantitative PCR (q-PCR) reactions were performed using LightCycler Taqman master (Roche Diagnostics, Mannheim, Germany) and the LightCycler (Roche). For tissue mRNA expression, total RNA was extracted from spinal cord using the RNeasy lipid tissue mini kit RNA. Ready sets of probe with primers for q-PCR were purchased from Applied Biosystems (Foster City, Calif.).
EAE (experimental autoimmune encephalomyelitis) induction: Mice were immunized subcutaneously with an emulsion containing 1.5 mg/ml MOG peptide 35-55 ([…]) (Sigma-Aldrich, Rehovot, Israel) and 2.5 mg/ml complete Freund's adjuvant (CFA), 100 μl in each flank. Pertussis toxin (500 ng in 500 μl PBS) was administered intra-peritoneally immediately and 48 hours after immunization. For prevention of EAE, CI-302 or PBS was given orally once a day for 10 consecutive days beginning 5 days before immunization.

Compound | p40 mRNA expression (IL-12/23 p40 [1]) | protection against EAE development (mean clinical score) (MOG induced EAE; 0.04 mg/kg orally once a day) | protection against EAE development (mean clinical score) (MOG induced EAE; 0.4 mg/kg orally once a day) | maximal reduction of p40 production (IL-12/23 p40 [2]; 1 hour pre-incubation, supernatants 24 hours, highest CI-302 concentration tested (FIG. 5A)) [%] | production of p40 by activated BMDCs (IL-12/23 p40 [2]; escalating CI-302 concentrations, ELISA at 24 hours (FIG. 5A)) | level of phosphotyrosine [3] | platelet aggregation (human platelets) | arthritis severity (mean score) [4] | p40 gene transcription in spinal cord ([5]; relative to PBS-treated group (FIG. 8A)) | p35 gene transcription in spinal cord ([5]; relative to PBS-treated group (FIG. 8B)) | CCL2 (MCP-1) transcription in spinal cord ([5]; relative to PBS-treated group (FIG. 8C)) | IFN-γ transcription in spinal cord ([5]; relative to PBS-treated group (FIG. 8D)) | TNF-α transcription in spinal cord ([5]; relative to PBS-treated group (FIG. 8E)) | CD4 mRNA levels in spinal cord ([5]; relative to control mice (FIG. 8F))
L-a-phosphatidylcholine [PC, reference compound] | little or no effect |  |  |  |  |  |  |  |  |  |  |  |  | 
CCCCCCCCCCCCCCCCOC[C@H](COP(=O)([O-])OCC[N+](C)(C)C)OC(=O)CCC [CI-302, 1-hexadecyl-2-butyroyl-sn-glycero-3-phosphocholine] | inhibited p40 mRNA expression considerably | noticeable though milder protection | close to complete protection | 45 | significantly inhibited production of p40 by activated BMDCs in a dose-dependent manner | strongly reduced the level of phosphotyrosine | no platelet aggregation was observed | decreased arthritis severity throughout the study period | reduced | reduced | reduced | reduced | reduced | considerably lower
CCCCCCCCCCCCCCCCOC[C@H](COP(=O)([O-])OCC[N+](C)(C)C)OC(C)=O [PAF, 1-hexadecyl-2-acetoyl-sn-glycero-3-phosphocholine, reference compound] |  |  |  |  |  |  | substantial platelet aggregation |  |  |  |  |  |  | 
